Reference: patent publication US20160136295A1, “BIOMARKERS FOR TREATMENT WITH ANTI-TUBULIN CHEMOTHERAPEUTIC COMPOUNDS” (GENENTECH, INC., priority 2012, published 2016)
Peptide text beside a SMILES is read from it. * marks the point of attachment. Cbz = O=C(OCc1ccccc1)*

Columns and labels:
[1] = tested on: Mcl-1; test: Mcl-1 protein level / degradation in mitotic arrest (western blot of synchronized cells); assay type: cell-based, human
Procedure: (§1) The viability of cancer cell lines, and MEFs in which genes encoding IAPs had been knocked out, was analysed by using the CellTiter-Glo Luminescent Cell Viability Assay® (Promega). Cells were treated in triplicate with anti-tubulin agents for the indicated times, using dimethylsulphoxide treatment as a control. The viability of BCL2-family-member-null MEFs was analysed by propidium iodide staining, as described previously (Chen, L. et al. (2005) Molecular cell 17:393-403), after treatment with anti-tubulin agents for 48 h. Cell synchronization was achieved by culture either in serum-free medium for 12-16 h or in medium containing 2 mM thymidine for 18-24 h, release from the thymidine block with three washes in PBS, followed by culture for 8-12 h in complete growth media (compositions are described in the Supplementary Information). Cells then underwent a second thymidine block for 16-20 h, three further washes in PBS and release into complete medium containing the indicated reagents. To block MCL1 degradation, […] MG132 was added as cells entered mitotic arrest, as assessed by visual inspection. See the Examples for full methods.
Western blotting was performed essentially as described (Wertz, I. E. et al. (2004) Science (New York, N.Y 303:1371-1374). In brief, cells were lysed in corrected FLAG elution buffer (CFEB) (19.17 mM Tris (pH 7.5), 916.7 μM MgCl2, 92.5 mM NaCl and 0.1% Triton X-100) with protease and phosphatase inhibitors; in some cases 6 M urea was added. Cleared lysates were quantitated and equal amounts of proteins were reduced, alkylated, separated by SDS-PAGE, and transferred onto PVDF membranes (Invitrogen) following standard procedures. Western blotting was performed as recommended by the respective antibody manufacturers. Patient tissue and xenograft samples were lysed in 5× volume of CFEB with protease inhibitors using Fast prep 24 (MP Biologicals). Tissue lysates were cleared and 40 μg total protein was prepared for western blotting analysis as described above. Immunoprecipitations were performed with the indicated antibodies as described (Willis, S. N. et al. (2007) Science (New York, N.Y 315:856-859; Wertz, I. E. et al. (2004) Science (New York, N.Y 303:1371-1374). PP2A activity was performed on PP2A or Mcl-1 immunoprecipitates as recommended by the manufacturer (Upstate)

[2] = tested on: murine embryonic fibroblasts (MEFs); test: Viability of BCL2-family-member-null MEFs by propidium iodide staining after anti-tubulin agents; assay type: cell-based; details: for killing (cell viability): treated 48 hours; for sensitivity to killing: 48 hours
Procedure: as §1

[3] = tested on: HCT116 cells; test: Live time-lapse imaging of mitotic fate; assay type: cell-based, human
Procedure: HCT116 parental or FBW7−/− cells expressing shLacZ or shMcl-1 were plated at 15,000-30,000 cells per well in 96-well μ-plates (ibidi GmbH) and infected with GFP-H2B baculovirus (Invitrogen) 24 hours prior to adding paclitaxel or vincristine. Cells were imaged live at 37° C. with 5% CO2 using a Nikon TiE® microscope with a Cool Snap® CCD camera (Roper Scientific) and a Plan Apo VC 20× 0.75 NA objective. Three images with 6 μm z-steps were acquired for each position every 10 minutes for 43 hours. Mitotic fate was analyzed manually using NIS-Elements software (Nikon) and numerical data was complied and statistically analyzed using Excel (Microsoft). Fifty mitotic cells were analyzed for each condition and p-values were calculated for the change in the number of cells that exited mitosis or entered apoptosis using the one-tailed Fisher's exact test.

[4] = tested on: FBW7-WT, FBW7−/− or FBW7 mutant colon cancer cell lines (HCT116, DLD1); test: Cell viability of colon cancer cell lines by FBW7 status (CellTiter-Glo); assay type: cell-based, human; details: 48 hours
Procedure: as §1
were synthesized by Ambion and experiments were performed as described (Huang, H. C., et al (2009) Cancer cell 16:347-358). For viability experiments using stable cell lines transfected with doxycycline-inducible shRNAs to LacZ or Mcl-1 ORF, cells were plated in 10 cm2 plates with 0.2 μg/mL doxycycline for two days. On the third day, cells were plated in to 96-well plates at 5×10^3 per well for viability assays as described above. […] For western blot analysis, cells were harvested at indicated time points and processed as described above.

[5] = tested on: Mcl-1 S159; test: In vitro kinase reactions: percent phosphorylation of full-length recombinant Mcl-1 at S159 alone; assay type: biochemical, human; details: % phos on S159 alone; for Percent phosphorylation S159, AVE: average; for Percent phosphorylation S159, INJ1: sample injection 1; for Percent phosphorylation S159, INJ2: sample injection 2
Procedure: (§2) To determine the suitability of residues in Mcl-1 as kinase substrates, 10 μM of Mcl-1 was incubated with selected kinase at enzyme concentrations between 25 and 100 nM. For these reactions the Mcl-1 was dialyzed into 20 mM Phosphate, 50 mM Tris pH 7.5 150 mM NaCl, 5 mM DTT and 0.5% CHAPS. The protein solution was further supplemented with MgCl2 to 10 mM and ATP to 1 mM prior to addition of kinase. Purified recombinant kinases were purchased from Invitrogen Co. (Carlsbad, Calif.).
(§3) 10 μl of each of the Mcl-1 kinase reactions (100 pmol) were loaded onto a 4-12% Bis-Tris gel for separation by SDS-PAGE after reduction. Mcl-1 bands were excised from the gel, dehydrated (50% acetonitrile in 50 mM ammonium bicarbonate then 100% acetonitrile washes), and incubated with 0.2 μg trypsin overnight at 37° C.
Samples were injected in duplicate via autosampler onto a nanoAcquity® UPLC (Waters, Milford, Mass.) and analyzed on-line via nanospray ionization into an LTQ-Orbitrap® mass spectrometer at a concentration of 300 fmol synthetic peptide mix per injection. Areas were integrated for the isotopic and kinase phosphorylated peptides, and compared to their non-phosphorylated peptide counterparts to obtain percent phosphorylation values. For phosphorylation analysis of T92, no synthetic peptide was available so peak areas of the phosphorylated peptide covering residues 76-95 was divided by the total occurrence of peptide 76-95 in both phosphorylated and non-phosphorylated forms.

[6] = tested on: Mcl-1 T163; test: In vitro kinase reactions: percent phosphorylation of full-length recombinant Mcl-1 at T163; assay type: biochemical, human; details: single kinase reactions; for Percent phosphorylation T163, AVE: average of INJ1 and INJ2; for Percent phosphorylation T163, INJ1: sample injection 1; for Percent phosphorylation T163, INJ2: sample injection 2
Procedure: as §2, §3
(§4) Samples were injected in duplicate via autosampler onto a nanoAcquity® UPLC (Waters, Milford, Mass.) and analyzed on-line via nanospray ionization into an LTQ-Orbitrap® mass spectrometer at a concentration of 300 fmol synthetic peptide mix per injection. Areas were integrated for the isotopic and kinase phosphorylated peptides, and compared to their non-phosphorylated peptide counterparts to obtain percent phosphorylation values.

[7] = tested on: Mcl-1 S121; test: In vitro kinase reactions: percent phosphorylation of full-length recombinant Mcl-1 at S121; assay type: biochemical, human; details: for Percent phosphorylation S121, AVE: average of INJ1 and INJ2; for Percent phosphorylation S121, INJ1: sample injection 1; for Percent phosphorylation S121, INJ2: sample injection 2
Procedure: as §2, §3, §4

[8] = tested on: Mcl-1 T92; test: In vitro kinase reactions: percent phosphorylation of full-length recombinant Mcl-1 at T92; assay type: biochemical, human; details: single kinase reactions, peak areas of 0 and 1P, triple charged state; for Percent phosphorylation T92, AVE: average; for Percent phosphorylation T92, INJ1: sample injection 1; for Percent phosphorylation T92, INJ2: sample injection 2
Procedure: as §2, §3, §4

[9] = tested on: Mcl-1 S159/T163; test: In vitro kinase reactions: percent phosphorylation of full-length recombinant Mcl-1 at S159+T163; assay type: biochemical, human; details: for Percent phosphorylation S159/T163, AVE: average; for Percent phosphorylation S159/T163, INJ1: sample injection 1; for Percent phosphorylation S159/T163, INJ2: sample injection 2
Procedure: as §2, §3, §4

[10] = % phos on S159+T163, CDK1 + kinase panel reactions
[11] = % phos on S159+T163, single kinase reactions

Row | Percent phosphorylation T163, AVE [6] | Percent phosphorylation T163, INJ1 [6] | Percent phosphorylation T163, INJ2 [6] | Percent phosphorylation S121, AVE ([7]; CDK1 + kinase panel reactions) | Percent phosphorylation S121, INJ1 ([7]; CDK1 + kinase panel reactions) | Percent phosphorylation S121, INJ2 ([7]; CDK1 + kinase panel reactions) | Percent phosphorylation S121, AVE ([7]; single kinase reactions) | Percent phosphorylation S121, INJ1 ([7]; single kinase reactions) | Percent phosphorylation S121, INJ2 ([7]; single kinase reactions) | Percent phosphorylation T92, AVE [8] | Percent phosphorylation T92, INJ1 [8] | Percent phosphorylation T92, INJ2 [8] | Percent phosphorylation S159/T163, AVE [9, 10] | Percent phosphorylation S159/T163, INJ1 [9, 10] | Percent phosphorylation S159/T163, INJ2 [9, 10] | Percent phosphorylation S159/T163, AVE [9, 11] | Percent phosphorylation S159/T163, INJ1 [9, 11] | Percent phosphorylation S159/T163, INJ2 [9, 11] | Compound | also measured
1 | – | – | – | – | – | – | – | – | – | – | – | – | – | – | – | – | – | – | Nc1[nH]nc2nnc(-c3c(-c4ccccc4)nn4ccccc34)cc12 [FR180204] | Mcl-1 degradation in mitotic arrest ([1]; HeLa released into paclitaxel, CGP74514A 2 μM, FR180204 2 μM, SP600125 25 μM, SB203580 2 μM added on entry into mitotic arrest): but not ERK, attenuate Mcl-1 degradation
2 | – | – | – | – | – | – | – | – | – | – | – | – | – | – | – | – | – | – | CC(C)C[C@@H](C=O)NC(=O)[C@H](CC(C)C)NC(=O)[C@H](CC(C)C)NC(=O)OCc1ccccc1 [MG132] (Cbz-Leu-Leu-Leu-aldehyde) | Mcl-1 degradation in mitotic arrest ([1]; HeLa, HCT116 cells, MG132 added as cells entered mitotic arrest): blocked Mcl-1 degradation
3 | – | – | – | – | – | – | – | – | – | – | – | – | – | – | – | – | – | – | COC(=O)Nc1nc2ccc(C(=O)c3cccs3)cc2[nH]1 [nocodazole] | Mcl-1 protein level in mitotic arrest ([1]; synchronized cells (HeLa) released into the agent): declined markedly; killing (cell viability) ([2]; BAX−/−/BAK−/− MEFs): resistant; killing (cell viability) ([2]; wild-type MEFs): significantly more sensitive
4 | – | – | – | – | – | – | – | – | – | – | – | – | – | – | – | – | – | – | CC[C@]1(O)C[C@H]2CN(CCc3c([nH]c4ccccc34)[C@@](C(=O)OC)(c3cc4c(cc3OC)N(C=O)[C@H]3[C@@](O)(C(=O)OC)[C@H](OC(C)=O)[C@]5(CC)C=CCN6CC[C@]43[C@@H]65)C2)C1 [vincristine, 22-Oxovincaleukoblastine] | sensitivity to killing ([2]; BCL-X−/− MEFs vs wild-type): not BCL-X enhances sensitivity; sensitivity to killing ([2]; MCL-1−/− MEFs vs wild-type): enhanced sensitivity; drug-induced apoptosis upon decreasing Mcl-1 protein levels ([3]; FBW7-null cells with Mcl-1 shRNA vs control shRNA): enhanced; exit from drug-induced mitotic arrest (mitotic slippage) ([3]; FBW7-null vs FBW7-wild-type cells): more readily; sensitivity to drug-induced death upon reducing Mcl-1 protein ([4]; FBW7-null HCT116 cells, doxycycline-inducible Mcl-1 shRNA): restored their sensitivity; resistance to drug-induced cell death ([4]; FBW7-null cell lines relative to wild-type cells): more resistant
5 | 0.00% | 0.00% | 0.00% | 21.48% | 20.17% | 22.78% | 10.28% | 10.20% | 10.36% | 0.10% | 0.09% | 0.10% | 7.70% | 8.30% | 7.09% | 3.80% | 5.61% | 1.99% | CSNK2: purified recombinant kinase purchased from Invitrogen | Percent phosphorylation S159, AVE ([5]; CDK1 + kinase panel reactions): 17.13%; Percent phosphorylation S159, INJ1 ([5]; CDK1 + kinase panel reactions): 16.35%; Percent phosphorylation S159, INJ2 ([5]; CDK1 + kinase panel reactions): 17.90%; Percent phosphorylation S159, AVE ([5]; single kinase reactions): 39.13%; Percent phosphorylation S159, INJ1 ([5]; single kinase reactions): 40.30%; Percent phosphorylation S159, INJ2 ([5]; single kinase reactions): 37.95%
6 | 48.52% | 48.92% | 48.11% | 11.82% | 11.75% | 11.89% | 6.02% | 6.46% | 5.57% | 2.02% | 2.30% | 1.74% | 0.61% | 0.73% | 0.49% | 4.82% | 5.41% | 4.22% | MAPK9: purified recombinant kinase purchased from Invitrogen | –
7 | 76.20% | 79.44% | 72.96% | 20.58% | 21.26% | 19.90% | 5.26% | 7.22% | 3.29% | 8.94% | 9.67% | 8.20% | 2.14% | 1.84% | 2.43% | 4.35% | 1.12% | 7.57% | MAPK14: purified recombinant kinase purchased from Invitrogen | –
